Row | melting point | SMILES
1 | 166 to 167 °C | N#Cc1c(N2CCCCC2)cc(-c2ccc3ccccc3c2)c2c1-c1ccccc1C2=O
2 | 134 to 136 °C | CCOC(=O)CSc1n[nH]c(=S)[nH]1
3 | 244 to 245 °C | Cc1cc2ncccc2c(=O)[nH]1
4 | 299 to 301 °C | O=c1cc(CBr)c2c(Cl)cc(Cl)cc2[nH]1
5 | 166 to 167 °C | CCOC(=O)c1cc(NCc2ccccc2)c(Sc2ccccc2C)c(S(N)(=O)=O)c1
6 | 61 to 65 °C | O=C1CCN(c2ccncn2)CC1
7 | 54 °C | COc1cccc(Cc2nc3c(cnn3C(CCCc3ccccc3)C(C)O)c(=O)[nH]2)c1 (stereo not drawn)
8 | 202 to 205 °C | Cc1nc2c(c3ccccc3n3nnnc23)n1CC(C)(C)O
9 | 217 to 219 °C | CC[C@H](C)[C@H](NS(=O)(=O)c1ccc(C)cc1)C(=O)N[C@H](CO)Cc1c[nH]c2ccccc12
10 | 174 to 175 °C | CCN(c1nc(C)cc(C)n1)c1ccc(C(C)C)cc1S(C)(=O)=O
11 | 152 to 154 °C | OCc1cccc(C(O)c2cc(C(F)(F)F)nc3c(C(F)(F)F)cccc23)c1 (stereo not drawn)
12 | 122 °C | CCC1=NNC(C)=C(C(=O)OC(C)(C)C)C1c1cccc([N+](=O)[O-])c1 (stereo not drawn)
13 | 161 to 162 °C | CCCCCCCCOC(=O)C(N)C=CCP(=O)(O)O (stereo not drawn)
14 | 190 to 195 °C | COc1cc(C=Cc2nc3c(c(=O)n(C)c(=O)n3C)n2C)cc(OC)c1OCc1ccccc1
15 | 105 to 110 °C | CC(C)(C)OC(=O)N[C@@H](Cc1ccc(O)cc1)C(=O)N[C@H](Cc1ccccc1)C(=O)NCC(=O)O
16 | 152 to 153 °C | CCOC(=O)/C(=N\OC12CC3CC(CC(C3)C1)C2)c1csc(N)n1
17 | 96 °C | CCOC(=O)CCCOc1cccc(Oc2nc(OC)cc(OC)n2)c1C=O
18 | 178 to 182 °C | COc1ccc2c(c1)c(/C=C/C(=O)c1ccncc1)cn2C
19 | 193 to 195 °C | CCC(=O)Nc1cc(S(=O)c2ccccc2)ccc1NC(=NC(=O)OC)NC(=O)OC (stereo not drawn)
20 | 122 °C | N#CCC(C#N)=CNc1c(Cl)cc(C(F)(F)F)cc1Cl
21 | 81 to 86 °C | CCCCCCC(N)C(C)O (stereo not drawn)
22 | 157 to 158 °C | Cc1ccccc1COc1cccnc1NC(=N)Nc1ccccc1
23 | 127 °C | CC(C)=CCN1CCC(=C2c3ccccc3CCn3ccnc32)CC1
24 | 236 °C | N#Cc1ccc(NC(=O)c2ccc(C=O)cc2)cc1
25 | 147 to 149 °C | CC1(C)CCC(C)(C)c2cc(-c3cc(C=CC(=O)O)ccc3O)c(OCc3ccc(Cl)cc3)cc21

Row | melting point | SMILES
26 | 82 to 83 °C | CCCc1cn(CC(=O)OCC)nc1OCc1ccc2ccccc2n1
27 | 180 to 182 °C | CC(C)C(=O)N(C)C1CN(C(=O)Nc2ccc(C(F)(F)F)cc2)N=C1c1ccc(Cl)cc1 (stereo not drawn)
28 | 123 to 125 °C | CC(C)n1nc(O)nc1N1CCCC1
29 | 98 to 100 °C | COC(=O)c1c2cccccc-2c(-c2ccccc2)c1-c1ccc(S(C)(=O)=O)cc1
30 | 186 °C | N#Cc1ccc(N2CC(CO)OC2=O)cc1 (stereo not drawn)
31 | 248 to 252 °C | O=c1[nH]c2c(CCO)c3ccccc3n2c2ccccc12
32 | 104 to 107 °C | CSCC(=O)[C@H](Cc1ccccc1)NC(=O)[C@H](CC(C)C)NC(=O)CCc1ccccc1
33 | 156 to 157 °C | CSc1nc(CC2CCN(c3ccccc3)CC2)nc(C(=O)NCC(=O)O)c1O
34 | 258 to 259 °C | Nc1cccc2c(=O)[nH]ccc12
35 | 199 to 200 °C | OC(c1ccccc1)(c1ccc(F)cc1)c1ncc[nH]1 (stereo not drawn)
36 | 94 to 95 °C | COc1cccc(C(CNC(=O)Cc2c(Cl)cncc2Cl)C(C)C)c1 (stereo not drawn)
37 | 160 to 166 °C | Cc1cc(C)c(COc2cccnc2N)c(C)c1
38 | 163 to 165 °C | Cc1ccc(Cc2cnc(NCCCNc3ccccn3)[nH]c2=O)cn1
39 | 83 to 88 °C | CC(=O)N(C)CC(C)c1ccncc1 (stereo not drawn)
40 | 27 to 30 °C | CCCCCCCCCCCCOC(=O)CC(O)C(=O)OCCCCCCCCCCCC (stereo not drawn)
41 | 243 to 245 °C | O=C(NNC(=O)c1occ(-c2ccccc2)c1-c1ccccc1)c1ccc(O)c(F)c1
42 | 118 to 119 °C | O=C(Nc1ccc2c(c1)C(=O)C1(CC1)O2)OCc1ccccc1
43 | 80 to 84 °C | CC(C)(C)OC(=O)CC(=O)c1cc2ccccc2cc1O
44 | 247 to 249 °C | CCOC(=O)c1ccc(CCC2CC(n3c4ccccc4c4ccccc43)c3ccccc3N2C(=O)c2ccc(OC)c(OC)c2)cc1 (stereo not drawn)
45 | 150 °C | CN1c2ccccc2C2CCN(CCC(C(=O)N3CCCCCC3)c3ccccc3)CC21 (stereo not drawn)
46 | 93 to 96 °C | COc1cc(F)c(C(=O)CCl)c(OC)c1
47 | 30 °C | OC1(O)C(F)(F)CCCC1(Cl)Cl
48 | 126 °C | c1ccc(C(c2ccccc2)(c2ccccc2)N2CCCC2)cc1
49 | 117 to 119 °C | CCN(CC)c1ccc(-c2cc3ccccc3o2)cc1
50 | 136 to 142 °C | CC(C)OC(=O)Cn1c(=O)n(C)c(=O)n(-c2cc(-n3c(=O)n4n(c3=S)CCCC4)c(F)cc2Cl)c1=O

Row | melting point | SMILES
51 | 102 to 103 °C | OC1CCCc2cc(F)cc(F)c21 (stereo not drawn)
52 | 150 to 155 °C | CCOCc1nc2c(N)nc(C)c(C)c2n1NCCCS(C)(=O)=O
53 | 68 to 70 °C | CCOC(=O)CCc1cc(C(=O)c2cccc(C(=O)OCC)c2)ccc1O
54 | 137 to 138 °C | Clc1ccc(-c2cc3nccc(C4CC4)n3n2)cc1
55 | 148 to 149 °C | COc1cccc2oc(-c3ccccc3Cl)cc(=O)c12
56 | 202 to 204 °C | NC(=O)c1nnn(Cc2ccc(Sc3ccc(Cl)cc3)c(Cl)c2)c1N
57 | 208 to 210 °C | CC1(C(=O)N2CCC(n3c(=O)[nH]c4ccccc43)CC2)OCc2ccccc2-n2cccc21 (stereo not drawn)
58 | 76 to 78 °C | Cc1nn(-c2c(Cl)cc(C(F)(F)F)cc2Cl)cc1C#C[Si](C)(C)C
59 | 177 to 178 °C | COc1nnc2n1C=Cc1cc(Cl)ccc1C2
60 | 130 °C | COc1cccc2c(N3CCNCC3)cc(C(F)(F)F)nc12
61 | 130 to 131 °C | COc1ccc(C(=N)N(N)c2c(Cl)cncc2Cl)cc1OC1CCCC1
62 | 165 to 170 °C | Clc1nnnc(-c2cccc3ccccc23)c1Cl
63 | 202 °C | CCCC(C1CCCCC1)n1cncc1C(=O)O (stereo not drawn)
64 | 127 to 130 °C | CCCC(=O)Nc1c(C(=O)c2cccc(C)c2)[nH]c2cc(Cl)ccc12
65 | 240 to 255 °C | C[C@H](NC(=O)CCn1cc(C2=C(c3cn(C)c4ccccc34)C(=O)NC2=O)c2ccccc21)C(=O)O
66 | 180 to 181 °C | COc1c(C(=O)O)nc(N2CCCCS2(=O)=O)n(C)c1=O
67 | 101 to 102 °C | Cc1cccc(C(Oc2ccc3oc(CCCO)cc3c2)c2cocn2)c1 (stereo not drawn)
68 | 114 °C | OCCC(O)OCn1ccc2c(Cl)ncnc21 (stereo not drawn)
69 | 161 to 162 °C | Cc1cc(OCc2coc(/C=C/c3ccc(C(F)(F)F)cc3)n2)ccc1CS(=O)CCc1ccnn1C (stereo not drawn)
70 | 111 to 112 °C | COC(=O)c1ccc(NC(=O)CCc2cnoc2-c2ccccc2)cc1
71 | 159 to 160 °C | CCOC(=O)c1cc(NCc2ccccc2)c(Nc2ccc(C)cc2)c(S(N)(=O)=O)c1
72 | 160 to 161 °C | OC1CSC(Oc2cncc(C(F)(F)F)c2)C(O)C1O (stereo not drawn)
73 | 56 to 58 °C | CCCCCCCCCCCCCCOc1cc(OCCCCCCc2cccc(OCc3ccccc3)c2OCc2ccccc2)cc(C(=O)OC)c1
74 | 84 to 87 °C | C[C@@H](n1cnc2cc(Sc3ccccc3)ccc2c1=O)[C@](O)(Cn1cncn1)c1ccc(F)cc1F
75 | 184 °C | Cn1c2ccc(Br)cc2c2cc(C(=O)N3CCOCC3)sc21

Row | melting point | SMILES
76 | 164 to 165 °C | Fc1ccc(C(F)(F)F)cc1Nc1nc2ccccc2o1
77 | 150 to 151 °C | Cc1cccc(C(=O)Nc2c[nH]nc2C(=O)NCCOC(C)C)n1
78 | 79 to 81 °C | OCc1cccc2nnsc12
79 | 92 °C | Fc1cnc(OC(c2ccnc3cc(Cl)ccc23)C(F)(F)F)nc1 (stereo not drawn)
80 | 142 °C | Cc1cc(C)cc(/C=C/c2ccc(O)cc2)c1
81 | 166 to 168 °C | CCCCOc1c(N)c(=O)c1=O
82 | 128 to 131 °C | CCc1nnc2cc(N3CCN(C)CC3)nc(CC)n12
83 | 147 to 148 °C | COC(=O)Cc1csc2c(O)cccc12
84 | 229 to 231 °C | Nc1cccc(CCc2n[nH]c3c2c(=O)n(-c2ccccc2)c2ncccc32)c1
85 | 235 to 250 °C | O=C(O)c1sc(-c2ccc(Cl)cc2)nc1C(F)(F)F
86 | 137 to 138 °C | COc1cc(Br)c(C(C)=NOCc2ccc([N+](=O)[O-])cc2)cc1O
87 | 170 °C | Cc1cc(C#N)cc(C(=O)Nc2ccc(F)c(F)c2)n1
88 | 127 to 129 °C | CC1CCN(C(=O)[C@H](CCCCNc2ccccn2)NS(=O)(=O)c2ccc3ccccc3c2)CC1
89 | 187 to 190 °C | CC1=C(C(=O)O)C(c2cccc(Cl)c2Cl)C(c2nnco2)=C(C)N1 (stereo not drawn)
90 | 60.4 to 60.8 °C | COc1ccc(-c2nccc3c(C)cccc23)cc1
91 | 135 to 136 °C | Cc1c(O)cccc1C(=O)N[C@@H](Cc1ccccc1)[C@H](O)C(=O)N1CSC(C)(C)[C@H]1C(=O)N[C@@H]1CCOc2ccccc21
92 | 176 °C | CCOC(=O)C1=C(C)NN=C(C(=O)OC)C1c1cccc([N+](=O)[O-])c1 (stereo not drawn)
93 | 52 to 55 °C | CCCCCCCCCCCCCCCCCCOCC(COC1CCCCO1)NC(C)=O (stereo not drawn)
94 | 160 to 162 °C | COC(=O)CCc1ccc(N2CCN(c3ccc(C#N)cc3)C2=O)cc1
95 | > 300 °C | COc1ccc(-c2[nH]nc3c2C(=O)c2c(NC(=O)CN4CCN(CCN)CC4)cccc2-3)cc1
96 | 192 to 200 °C | COC(=O)c1cc(-c2ccc3c(c2)CCO3)n[nH]c1=O
97 | 103 to 104 °C | CCOC(=O)c1cn(Cc2ccc(OCc3ccccc3)cc2)nc1-c1ccc(F)cc1
98 | 168 to 169 °C | CCOC(=O)C1=C(C)NN=C(C(=O)OC)C1c1ccccc1[N+](=O)[O-] (stereo not drawn)

Row | SMILES | melting point
99 | CC1N=C(c2ccccc2Cl)c2cc([N+](=O)[O-])ccc2NC1=S (single isomer, unassigned; (+)) | 258 to 260 °C
100 | CC(C)NC(=O)Nc1cc(-c2ccnc3c(C(=O)c4cccs4)cnn23)ccc1F | > 200 °C
101 | CCC(C(C)C)C(CN)CC(=O)O (stereo not drawn) | 170 to 180 °C
102 | CN1Cc2c(C(=O)OC(C)(C)C)ncn2-c2cccc(Cl)c2C1=O | 188 to 190 °C
103 | OC1(c2ccc(-c3cncnc3)cc2)CN2CCC1CC2 (stereo not drawn) | 184 to 185 °C

— a melting point compilation (Tetko et al.; mined from patent text by program, amines drawn as free bases though some values may be those of a salt)
